Experimental data from ChEMBL document CHEMBL1201862, “PubChem BioAssay data set” (2004).
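Values below derive from 48-hour exposures of cells grown in 96-well plates, with endpoints linearly interpolated between the two concentrations bracketing the appropriate inhibition level. The concentration for 50% growth inhibition is given as GI50.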 The source made the active and inactive calls. Cut-off read from the data, not from the text of the source: active = GI50 up to about 1.1 µM and inactive = higher.

Columns and labels:
Test in all cases: NCI anticancer screen, dose series, 48 h
786-0 = system: 786-0
RXF 631 = system: RXF 631
LXFL 529 = system: LXFL 529
KM-20L2 = system: KM-20L2
T47D = system: T47D
MDA-MB-435 = system: MDA-MB-435
MDA-MB-231 = system: MDA-MB-231
BT-549 = system: BT-549
PC-3 = system: PC-3

Measured: GI50

O=C(Nc1cccc(C(F)(F)F)c1)C(=O)C(C(=O)c1ccc(Cl)c(Cl)c1)C1OC(=O)c2ccccc21 (configuration not stated)
inactive: 786-0 37.7 µM | RXF 631 39.3 µM | LXFL 529 28.7 µM | KM-20L2 39.4 µM

CC1C(O)C2(Oc3cc4c(c5c3[C@@H](CC5O)[C@H]2C)CCC2Cc3nc5c(nc3C[C@@]42C)CC2CCC3C4=C[C@H]6O[C@@]7(O[C@@](C)(CO)C[C@@H]7O)C(C)[C@@]6(O)[C@]4(C)[C@@H](O)CC3[C@]2(C)C5)OC1(C)C (some centres not stated)
active: KM-20L2 0.0975 µM

CCOC(=O)/C(=N/Nc1ccc(Cl)cc1)N1C(=S)N(C)N=C(C)C=C1S
inactive: T47D 29.8 µM | MDA-MB-435 > 100 µM | MDA-MB-231 29 µM

CCCC(=O)Nc1cc(/C=C/C(=O)N2CC(CCl)c3c2cc(OCc2ccccc2)c2[nH]cc(C)c32)n(C)c1 (configuration not stated)
active: 786-0 0.0365 µM | T47D 0.225 µM | BT-549 0.159 µM | MDA-MB-435 0.251 µM | PC-3 0.103 µM | MDA-MB-231 0.247 µM

Nc1ccc2[nH]c3c(-c4ccccc4)nccc3c2c1
inactive: KM-20L2 48.3 µM

Cc1sc(N)c(S(=O)(=O)c2ccccc2)c1C
inactive: 786-0 > 100 µM | T47D > 100 µM | BT-549 > 100 µM | MDA-MB-435 > 100 µM | PC-3 > 100 µM | MDA-MB-231 > 100 µM

[N-]=[N+]=CC(=O)OCC(N)C(=O)O (configuration not stated)
active: KM-20L2 0.157 µM

Nc1ncnc2c1ncn2[C@@H]1O[C@H](COP(=O)(O)O)[C@@H](O)[C@@H]1O
inactive: KM-20L2 > 50 µM

CCCCC(C)C1CCC2(C)C=CC(=O)C(C)=C2C1O (configuration not stated)
inactive: KM-20L2 > 100 µM

Cc1ccc2c3c4c(ccc13)C(C)(C)OC4=C(C(C)C)C2=O
inactive: 786-0 66.7 µM | T47D 53.5 µM | BT-549 26.5 µM | MDA-MB-435 59.7 µM | PC-3 14.5 µM | MDA-MB-231 > 100 µM

O=C(O)c1cc2c3c(c1)[C@H]1C=CC[C@H]1CN3CC1CC=CC21 (some centres not stated)
inactive: 786-0 > 100 µM | LXFL 529 > 100 µM | KM-20L2 > 100 µM

COc1ccc2cc(/C=N/NC(=O)Nc3ccccc3)ccc2c1
inactive: T47D > 100 µM | BT-549 > 100 µM | MDA-MB-435 > 100 µM | PC-3 > 100 µM | MDA-MB-231 81.3 µM

COc1cc(N/N=C/C#N)cc(OC)c1OC
inactive: T47D 4.65 µM | MDA-MB-435 > 10 µM | PC-3 > 10 µM | MDA-MB-231 > 10 µM

CC1(C)CCC2(C(=O)O)C(O)CC3(C)C(=CCC4C5(C)CCC(OC6OCC(O)C(O)C6OC6OCC(O)C(O)C6OC6OCC(O)C(OC7OC(CO)C(O)C(O)C7O)C6O)C(C)(C)C5CCC43C)C2C1 (configuration not stated)
inactive: 786-0 > 100 µM | T47D 97.1 µM | BT-549 29.7 µM | MDA-MB-435 28.4 µM | PC-3 44.6 µM | MDA-MB-231 > 100 µM

COc1ccc2c(c1)/C(=C/CCN(C)C)c1ccccc1S2
inactive: T47D > 100 µM | MDA-MB-435 48 µM | PC-3 75.9 µM | MDA-MB-231 59 µM

Cc1ccc(S(=O)(=O)N/N=C/c2c(O)ccc3ccccc23)cc1
inactive: 786-0 30.1 µM | T47D 31.8 µM | BT-549 23.8 µM | MDA-MB-435 23.7 µM | PC-3 20.7 µM | MDA-MB-231 21.9 µM

CC(=O)OCC1OC(n2cc(F)c(=O)[nH]c2=O)C(NC(=O)OCc2ccccc2)C(OC(C)=O)C1OC(C)=O (configuration not stated)
inactive: KM-20L2 > 100 µM

COc1cc(Nc2nc3ccc(C(F)(F)F)cc3nc2C(=O)O)cc(OC)c1OC
inactive: 786-0 27.8 µM | T47D 26.8 µM | BT-549 19.2 µM | MDA-MB-435 24.3 µM | PC-3 24.4 µM | MDA-MB-231 19.2 µM

CCOC(=O)c1ccc(N[C@@H]2c3cc4c(cc3C(c3cc(OC)c(O)c(OC)c3)[C@H]3C(=O)OCC32)OCO4)cc1O (some centres not stated)
inactive: KM-20L2 2.2 µM

C=C1C(=O)C[C@@]23CCC[C@@]12CC(O)C3 (some centres not stated)
inactive: KM-20L2 21.8 µM

CCCCCCCNC(P(=O)(O)O)P(=O)(O)O
inactive: 786-0 > 100 µM | T47D > 100 µM | BT-549 > 100 µM | MDA-MB-435 > 100 µM | PC-3 > 100 µM | MDA-MB-231 > 100 µM

CCCCCC1CC(C(C)=O)CN1c1ccc(F)cc1 (configuration not stated)
inactive: LXFL 529 32.1 µM | KM-20L2 35.3 µM

O=C(CCC(=O)Nc1ccccc1C(F)(F)F)N/N=C1\C(=N\NC(=O)CCC(=O)Nc2ccccc2C(F)(F)F)C(c2ccc3c(c2)OCO3)Oc2ccccc21 (configuration not stated)
inactive: 786-0 8.63 µM | RXF 631 14 µM | KM-20L2 97.1 µM

O=c1cc(N2CCCC2)[nH]c(=O)n1-c1cccc(C(F)(F)F)c1
inactive: 786-0 > 100 µM | T47D > 100 µM | BT-549 > 100 µM | MDA-MB-435 > 100 µM | PC-3 > 100 µM | MDA-MB-231 > 100 µM

O=C(O)c1nc2ccc(C(F)(F)F)cc2[nH]c1=O
inactive: T47D > 100 µM | BT-549 > 100 µM | MDA-MB-435 > 100 µM | PC-3 > 100 µM | MDA-MB-231 > 100 µM

CC1CNC(NS(=O)(=O)c2cc(C(=O)Nc3ccc(F)cc3)c(Cl)cc2S)=NN1 (configuration not stated)
inactive: 786-0 > 100 µM | BT-549 > 100 µM | MDA-MB-435 35.7 µM | PC-3 30.3 µM | MDA-MB-231 82.2 µM

O=NN(CCCl)C(=O)NC1CCSc2ccccc21 (configuration not stated)
inactive: KM-20L2 > 100 µM

[N-]=[N+]=CC(=O)c1ccccc1C#CCCc1ccccc1
inactive: KM-20L2 23.6 µM

CS(=O)(=O)OCC1=C(COS(C)(=O)=O)C(=O)c2c(O)ccc(O)c2C1=O
inactive: RXF 631 > 100 µM | LXFL 529 > 100 µM | KM-20L2 > 100 µM

COc1ccc(C23C(=O)c4ccccc4N2O[C@H]2C(=O)N(c4ccccc4)C(=O)[C@H]23)cc1 (some centres not stated)
inactive: 786-0 > 100 µM | RXF 631 > 100 µM | LXFL 529 > 100 µM | KM-20L2 > 100 µM

CN(C)CCCNc1ccc2nnn3c4ccc(O)cc4c(=O)c1c23
inactive: 786-0 2.86 µM | T47D 21 µM | BT-549 18.8 µM | MDA-MB-435 8.22 µM | PC-3 2.84 µM | LXFL 529 6.61 µM | KM-20L2 3.3 µM | MDA-MB-231 10.7 µM

CC1(C)CCc2cc3c(cc2O1)OC(C)(C)CC3=O
inactive: LXFL 529 81.5 µM

CN(C)CCCCN1CCc2c(n(C)c3ccccc23)C1=O
inactive: 786-0 33.5 µM | T47D 25.5 µM | BT-549 45.4 µM | MDA-MB-435 18.5 µM | MDA-MB-231 29.5 µM

COC1=CC(=O)c2ccccc2C1(C)C1=NC(C)(C)CO1 (configuration not stated)
inactive: 786-0 > 100 µM | RXF 631 > 100 µM | LXFL 529 > 100 µM | KM-20L2 > 100 µM

Cc1ccc(-c2c(C#N)c(-c3ccc([N+](=O)[O-])cc3)c(C#N)c(=O)n2NS(=O)(=O)c2ccccc2)cc1
inactive: 786-0 45.3 µM | BT-549 10.4 µM | MDA-MB-435 54.5 µM | PC-3 25.3 µM | MDA-MB-231 38.7 µM

COC(=O)c1c(-c2ccccc2)c2sc3ccccc3n2c1N
inactive: 786-0 29.3 µM | T47D 20.8 µM | BT-549 > 100 µM | MDA-MB-435 81.7 µM | PC-3 31.1 µM | MDA-MB-231 87.1 µM

CC(C)NC(=O)OCc1c(COC(=O)NC(C)C)c(-c2cc[n+](COC(=O)Cc3ccccc3)cc2)n2c1CCC2
inactive: 786-0 46 µM | T47D > 100 µM | BT-549 > 100 µM | MDA-MB-435 > 100 µM | PC-3 > 100 µM | MDA-MB-231 > 100 µM

CCCCCCCCCCC(C)CCCCCCC(=O)O (configuration not stated)
inactive: 786-0 > 100 µM | RXF 631 > 100 µM | LXFL 529 > 100 µM

Cc1c2ccnc(-c3ccccc3)c2cc2c1[nH]c1ccccc12
inactive: KM-20L2 2.61 µM
